Patent publication US12377112B2, “Methods of treating neurocognitive disorders, chronic pain and reducing inflammation” (priority 2019, dated 2025)

System: healthy subjects
Assay: Phase 1 study: Life Changes Inventory (LCI)
Format: in vivo, human
Text: In some embodiments, the Life Changes Inventory (LCI) questionnaire is utilized to evaluate the safety and/or efficacy of psilocybin. The LCI is designed as a questionnaire to investigate those variables present in the day-to-day experience of adults that might relate either to stability or decline of intellectual ability.
The following list of outcome measures are non-exhaustive: • a. The short-term change from Baseline (Day −1 [Visit 2]) to Day 7 (Visit 5) in cognitive measures of attention, spatial and working memory and executive function was measured by a composite score of the CANTAB Panel (Spatial Working Memory [SWM], Rapid Visual Information Processing [RVP], Paired Associates Learning [PAL]). • b. The short-term change from Baseline (Day −1 [Visit 2]) to Day 7 (Visit 5) in Social Cognition Panel scales (Pictorial Empathy Test [PET], Reading the Mind in the eyes Test [RMET], Toronto Empathy Questionnaire [TEQ], Social Value Orientation [SVO], Scale of Social Responsibility [SSR]). • c. The change from Baseline (Day −1 [Visit 2]) to Day 28 (Visit 6) in cognitive measures of attention, spatial and working memory and executive function as measured by a composite score of the CANTAB Panel (SWM, RVP, PAL). • d. The long-term change from Baseline (Day −1 [Visit 2]) to Day 84 (Visit 7) in Social Cognition Panel scales (PET, RMET, TEQ, SVO, SSR). • e. Dose-related differences between cognitive effects of psilocybin at Baseline (Day −1 [Visit 2]), Day 7 (Visit 5) and Day 28 (Visit 6), as measured by a composite score of the CANTAB Panel (SWM, RVP, PAL). • f. Dose-related differences between psychological effects of psilocybin at Baseline (Day −1 [Visit 2]), Day 7 (Visit 5) and Day 84 (Visit 7), as measured by Social Cognition Panel scales (PET, RMET, TEQ, SVO, SSR). • g. Differences in cognitive effects of psilocybin between psilocybin-naïve and experienced subjects at Baseline (Day −1 [Visit 2]), Day 7 (Visit 5) and Day 28 (Visit 6), as measured by a composite score of the CANTAB Panel (SWM, RVP, PAL). • h. Differences in Positive and Negative Affect Schedule (PANAS) after study drug administration on Day 0 (Visit 3). • i. Differences between psilocybin and placebo in the Emotion Recognition Test (ERT), Intra-Extra Dimensional Set Shift (IED), One Touch Stockings (OTS), Verbal Fluency and Digit Span Forward at Day 7 (Visit 5). • j. A composite score of the CANTAB Panel, including the following tests: • i. Spatial Working Memory (SWM) (performed at Visit 2, Visit 5, and Visit 6). • ii. Rapid Visual Information Processing (RVP) (performed at Visit 2, Visit 5, and Visit 6). • iii. Paired Associates Learning (PAL) (performed at Visit 2, Visit 5, and Visit 6). • k. Cognitive Flexibility Panel • i. Emotion Recognition Task (ERT) (performed at Visit 5). • ii. Intra-Extra Dimensional Set Shift (IED) (performed at Visit 5). • iii. One Touch Stockings (OTS) (performed at Visit 5). • iv. Verbal Fluency (performed at Visit 5). • v. Digit Span Forward (performed at Visit 5). • l. Five Dimension Altered States of Consciousness questionnaire (5D-ASC) (performed at Visit 3). • m. PANAS (performed at Visit 2 and Visit 3). • n. NEO-Five Factor Inventory (NEO-FFI) (performed at Visit 2, Visit 5, and Visit 7). • o. Symptom Checklist-90 item (SCL-90) (performed at Visit 2, Visit 5, and Visit 7). • p. Life Changes Inventory (LCI): The LCI measures changes in attitudes and values after near-death experiences often used to evaluate personal transformation following spiritually oriented experiences and practices. (performed at Visit 5 and Visit 7). • q. Social Cognition Panel scales • i. Pictorial Empathy Test (PET) (performed at Visit 2, Visit 5, and Visit 7). • ii. Reading the Mind in the Eyes Test (RMET) (performed at Visit 2, Visit 5, and Visit 7). • iii. Social Value Orientation (SVO) (performed at Visit 2, Visit 5, and Visit 7). • iv. Toronto Empathy Questionnaire (TEQ) (performed at Visit 2, Visit 5, and Visit 7). • v. […]

[1] = Psilocybin 10 mg - Placebo, Day 7
[2] = Psilocybin 10 mg - Placebo, Day 84
[3] = Psilocybin 25 mg - Placebo, Day 7
[4] = Psilocybin 25 mg - Placebo, Day 84
[5] = Psilocybin (25 mg - 10 mg), Day 7
[6] = Psilocybin (25 mg - 10 mg), Day 84

Structure (SMILES): CN(C)CCc1c[nH]c2cccc(OP(=O)(O)O)c12 [Psilocybin, psilocybin]
- LCI appreciation for life, LS mean difference [1]: 0.6
- LCI appreciation of death, LS mean difference [1]: 0.1
- LCI concern for others, LS mean difference [1]: 0.4
- LCI concern for worldly achievement, LS mean difference [1]: −0.2
- LCI concern social, LS mean difference [1]: 0.1
- LCI quest for meaning, LS mean difference [1]: 0.4
- LCI religiousness, LS mean difference [1]: −0.1
- LCI self-acceptance, LS mean difference [1]: 0.7
- LCI spirituality, LS mean difference [1]: 0.3
- LCI-absolute change, LS mean difference [1]: 0.4
- LCI appreciation for life, LS mean difference [2]: 0.6
- LCI appreciation of death, LS mean difference [2]: 0.2
- LCI concern for others, LS mean difference [2]: 0.4
- LCI concern for worldly achievement, LS mean difference [2]: −0.2
- LCI concern social, LS mean difference [2]: 0.1
- LCI quest for meaning, LS mean difference [2]: 0.4
- LCI religiousness, LS mean difference [2]: −0.0
- LCI self-acceptance, LS mean difference [2]: 0.5
- LCI spirituality, LS mean difference [2]: 0.4
- LCI-absolute change, LS mean difference [2]: 0.4
- LCI appreciation for life, LS mean difference [3]: 0.5
- LCI appreciation of death, LS mean difference [3]: 0.1
- LCI concern for others, LS mean difference [3]: 0.4
- LCI concern for worldly achievement, LS mean difference [3]: −0.1
- LCI concern social, LS mean difference [3]: 0.2
- LCI quest for meaning, LS mean difference [3]: 0.4
- LCI religiousness, LS mean difference [3]: 0.0
- LCI self-acceptance, LS mean difference [3]: 0.5
- LCI spirituality, LS mean difference [3]: 0.2
- LCI-absolute change, LS mean difference [3]: 0.3
- LCI appreciation for life, LS mean difference [4]: 0.5
- LCI appreciation of death, LS mean difference [4]: 0.2
- LCI concern for others, LS mean difference [4]: 0.5
- LCI concern for worldly achievement, LS mean difference [4]: −0.1
- LCI concern social, LS mean difference [4]: 0.1
- LCI quest for meaning, LS mean difference [4]: 0.4
- LCI religiousness, LS mean difference [4]: 0.0
- LCI self-acceptance, LS mean difference [4]: 0.5
- LCI spirituality, LS mean difference [4]: 0.4
- LCI-absolute change, LS mean difference [4]: 0.4
- LCI appreciation for life, LS mean difference [5]: −0.2
- LCI appreciation of death, LS mean difference [5]: −0.0
- LCI concern for others, LS mean difference [5]: 0.0
- LCI concern for worldly achievement, LS mean difference [5]: 0.1
- LCI concern social, LS mean difference [5]: 0.1
- LCI quest for meaning, LS mean difference [5]: 0.0
- LCI religiousness, LS mean difference [5]: 0.1
- LCI self-acceptance, LS mean difference [5]: −0.1
- LCI spirituality, LS mean difference [5]: −0.1
- LCI-absolute change, LS mean difference [5]: −0.1
- LCI appreciation for life, LS mean difference [6]: −0.1
- LCI appreciation of death, LS mean difference [6]: 0.0
- LCI concern for others, LS mean difference [6]: 0.1
- LCI concern for worldly achievement, LS mean difference [6]: 0.1
- LCI concern social, LS mean difference [6]: 0.0
- LCI quest for meaning, LS mean difference [6]: −0.0
- LCI religiousness, LS mean difference [6]: 0.1
- LCI self-acceptance, LS mean difference [6]: 0.0
- LCI spirituality, LS mean difference [6]: −0.0
- LCI-absolute change, LS mean difference [6]: −0.0
